# From patent US20080300298A1, “Honokiol Derivates For the Treatment of Proliferative Disorders” (priority 2005, published 2008)
# Assays:
# IKK = target: T1, IKK (Homo sapiens, UniProt O14920+O15111); test: IKK assay (immune complex kinase assay); assay type: cell-based
# T1 construct: 200 mg of extract was immunoprecipitated with antibodies against IKKa and IKKb; endogenous in cells; host or cells: H1299 cells, whole-cell extracts, immunoprecipitated
# Procedure: Honokiol inhibits TNF-induced activation of NF-kB. H1299 cells were incubated with […] honokiol for 12 h, treated with 0.1 nM TNF for the indicated times, and then analyzed for NF-kB activation by EMSA. (B) H1299 cells (2×10^6/ml) were incubated with […] honokiol for 12 h at 37° C., treated with 0.1 nM TNF for the indicated times at 37° C., and then tested for IkBa (upper panel) in cytosolic fractions by Western blot analysis. Equal protein loading was evaluated by b-actin (lower panel). (C) Honokiol blocks the phosphorylation and ubiquitination (D) of IkBaby TNF. […] To examine the effect of honokiol on the level of expression of IKK proteins, 30 mg of whole-cell extract was analyzed on 10% SDS-PAGE, electrotransferred, and immunoblotted with the indicated antibodies as described in Materials and Methods. […] Nuclear extracts were prepared and analyzed by Western blotting using antibodies against p65. […] The cytoplasmic and nuclear extracts were analyzed by Western blotting using antibodies against the phosphorylated form of p65.
# IKK assay. To determine the effect of honokiol on TNF-induced IKK activation, we analyzed IKK by a method essentially as described previously (Shishodia, S., et al. 2003 Cancer Res. 63:4375-4383). […]
# splenic B cells = test: CD40 mediated cytokine production of splenic B cells from treated mice; assay type: in vivo, C57BL/6 or mCD40-LMP1 Tg mice; conditions: honokiol 3 mg/day, day 21-70
# Procedure: CD40 mediated IL-6 and TNF-alpha production was also evaluated. […] IL-6 in culture supernatants was assessed by ELISA. Mice were assessed 70 days post-immunization with CII/CF or CFA only (or naïve). Some mice received honokiol (3 mg/day) from day 21-70 post-immunization. […] TNF-a in culture supermatants was assessed by ELISA. Mice were assessed 70 days post-immunization with CII/CF or CFA only (or naïve). Some mice received honokiol (3 mg/day) from day 21-70 post-immunization. […] In LMP1 Tg mice, even negative control mice have lowered IL-6 and TNF-alpha responses. However, IL-10 was not affected, as determined by analyzing the role of Honokiol treatment on B cell IL-10 production. […] IL-10 in culture supermatants was assessed by ELISA. Mice were assessed 70 days post-immunization with CII/CF or CFA only (or naïve). Some mice received honokiol (3 mg/day) from day 21-70 post-immunization.
# T1 sequence (O15111 whole entry): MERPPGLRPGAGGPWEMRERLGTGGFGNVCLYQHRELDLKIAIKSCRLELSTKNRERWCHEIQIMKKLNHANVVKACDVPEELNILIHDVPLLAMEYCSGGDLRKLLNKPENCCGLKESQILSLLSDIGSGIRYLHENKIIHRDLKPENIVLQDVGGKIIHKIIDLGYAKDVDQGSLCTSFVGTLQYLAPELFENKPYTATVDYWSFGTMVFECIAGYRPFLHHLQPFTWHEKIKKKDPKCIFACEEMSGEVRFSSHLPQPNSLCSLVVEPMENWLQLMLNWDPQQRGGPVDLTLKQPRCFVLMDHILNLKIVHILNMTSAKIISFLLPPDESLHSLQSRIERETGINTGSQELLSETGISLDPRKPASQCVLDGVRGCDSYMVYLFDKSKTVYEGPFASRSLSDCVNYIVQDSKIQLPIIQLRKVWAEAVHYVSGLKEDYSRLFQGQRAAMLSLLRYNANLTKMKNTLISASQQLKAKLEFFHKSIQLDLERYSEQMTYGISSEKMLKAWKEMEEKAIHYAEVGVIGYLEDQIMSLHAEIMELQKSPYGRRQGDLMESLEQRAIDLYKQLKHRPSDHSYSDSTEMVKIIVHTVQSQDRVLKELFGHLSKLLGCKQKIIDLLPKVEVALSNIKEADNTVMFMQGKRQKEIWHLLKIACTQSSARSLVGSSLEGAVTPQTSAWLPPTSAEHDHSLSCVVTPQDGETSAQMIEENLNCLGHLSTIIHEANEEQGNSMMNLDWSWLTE
# T1 sequence (O14920 whole entry): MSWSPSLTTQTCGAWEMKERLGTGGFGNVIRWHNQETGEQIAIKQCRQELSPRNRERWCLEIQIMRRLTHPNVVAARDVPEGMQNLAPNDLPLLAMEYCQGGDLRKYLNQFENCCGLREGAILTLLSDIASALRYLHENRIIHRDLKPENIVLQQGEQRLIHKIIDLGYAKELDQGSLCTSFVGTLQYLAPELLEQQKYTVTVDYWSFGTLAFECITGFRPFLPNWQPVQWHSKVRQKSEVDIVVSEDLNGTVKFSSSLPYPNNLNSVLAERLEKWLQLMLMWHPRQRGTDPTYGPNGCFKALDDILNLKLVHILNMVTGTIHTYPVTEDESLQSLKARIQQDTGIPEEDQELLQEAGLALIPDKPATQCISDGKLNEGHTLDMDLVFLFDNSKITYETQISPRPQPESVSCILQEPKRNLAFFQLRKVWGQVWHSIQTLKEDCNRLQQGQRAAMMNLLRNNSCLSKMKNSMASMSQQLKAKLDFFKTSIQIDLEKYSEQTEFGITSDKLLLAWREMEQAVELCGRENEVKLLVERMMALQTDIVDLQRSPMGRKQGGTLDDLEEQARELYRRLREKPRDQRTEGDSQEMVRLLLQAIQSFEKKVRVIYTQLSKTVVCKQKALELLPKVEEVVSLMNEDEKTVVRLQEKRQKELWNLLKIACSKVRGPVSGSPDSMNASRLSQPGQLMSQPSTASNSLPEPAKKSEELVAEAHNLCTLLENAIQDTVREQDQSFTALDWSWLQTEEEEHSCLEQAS
# T1 sequence (Q9Y6K9 whole entry partner): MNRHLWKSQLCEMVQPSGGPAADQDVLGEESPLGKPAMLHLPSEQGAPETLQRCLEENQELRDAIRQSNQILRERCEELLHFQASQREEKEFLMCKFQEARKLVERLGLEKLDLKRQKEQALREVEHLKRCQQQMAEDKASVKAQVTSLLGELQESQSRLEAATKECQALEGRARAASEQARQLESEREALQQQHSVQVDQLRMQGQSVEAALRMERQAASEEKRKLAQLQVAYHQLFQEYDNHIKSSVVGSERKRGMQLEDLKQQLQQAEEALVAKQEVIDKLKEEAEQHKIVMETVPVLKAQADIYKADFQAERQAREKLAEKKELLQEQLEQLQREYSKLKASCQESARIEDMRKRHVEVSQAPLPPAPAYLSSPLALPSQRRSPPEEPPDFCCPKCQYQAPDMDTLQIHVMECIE
compound,measurement,setting,value
"C=CCc1ccc(O)c(-c2ccc(O)c(CC=C)c2)c1 [HNK, Honokiol]",TNF-induced IKK activation,"IKK; cells treated with honokiol 12 h, 0.1 nM TNF",completely suppressed TNF-induced activation of IKK
same,IKK activity in vitro (direct effect),IKK; in vitro,did not directly interfere with the IKK activity
same,CD40 mediated IL-6 production,splenic B cells,CD40 mediated IL-6 production is decreased
same,CD40 mediated TNF-alpha production,splenic B cells,CD40 mediated TNF-alpha production is decreased
